# Laboratory results: BindingDB's records for doi:10.7270/Q21J98DJ (The Scripps Research Institute Molecular Screening Center, 2014)
# Biological target: Disintegrin and metalloproteinase domain-containing protein 17 (Homo sapiens, UniProt P78536)
# Assay: exosite inhibitors of ADAM17, dose response, biochemical (AID 743260)
# Chain of Disintegrin and metalloproteinase domain-containing protein 17 (P78536 whole entry, the tested form may be a part): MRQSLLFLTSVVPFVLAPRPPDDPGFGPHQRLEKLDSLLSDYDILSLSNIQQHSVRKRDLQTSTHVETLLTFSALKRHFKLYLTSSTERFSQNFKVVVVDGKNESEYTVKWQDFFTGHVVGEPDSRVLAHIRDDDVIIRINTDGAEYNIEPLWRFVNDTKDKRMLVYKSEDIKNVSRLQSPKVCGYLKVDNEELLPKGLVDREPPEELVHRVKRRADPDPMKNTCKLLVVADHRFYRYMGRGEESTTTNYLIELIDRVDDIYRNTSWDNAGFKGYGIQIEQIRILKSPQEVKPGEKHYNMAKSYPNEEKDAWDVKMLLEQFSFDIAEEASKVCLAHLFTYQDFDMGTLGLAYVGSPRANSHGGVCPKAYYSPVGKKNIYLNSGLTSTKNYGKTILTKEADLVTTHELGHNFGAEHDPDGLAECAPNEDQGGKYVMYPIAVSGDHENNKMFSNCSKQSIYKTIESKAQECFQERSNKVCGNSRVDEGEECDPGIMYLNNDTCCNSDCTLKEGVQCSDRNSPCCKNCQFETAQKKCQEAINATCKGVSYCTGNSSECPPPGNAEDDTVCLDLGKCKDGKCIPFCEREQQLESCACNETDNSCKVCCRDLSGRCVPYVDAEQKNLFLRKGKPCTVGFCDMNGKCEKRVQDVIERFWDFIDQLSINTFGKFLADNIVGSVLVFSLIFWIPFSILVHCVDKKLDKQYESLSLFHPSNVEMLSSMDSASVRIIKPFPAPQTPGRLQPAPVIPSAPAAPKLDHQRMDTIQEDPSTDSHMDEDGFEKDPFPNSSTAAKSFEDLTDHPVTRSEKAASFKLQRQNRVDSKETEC
row,IC50 [µM],SMILES
1,69.5,"COc1cccc(C2c3oc(CO)cc(=O)c3OC(=N)C2C#N)c1 (stereo not drawn) [2-Amino-6-hydroxymethyl-4-(3-methoxy-phenyl)-8-oxo-4,8-dihydro-pyrano[3,2-b]pyran-3-carbonitrile]"
2,69.5,"COC(=O)c1cccc(Cn2c(Cl)c(CN=Nc3ccccc3C)sc2=O)c1 [methyl 3-[[4-chloro-5-[[(2-methylphenyl)hydrazinylidene]methyl]-2-oxo-1,3-thiazol-3-yl]methyl]benzoate]"
3,69.5,"COc1ccc(NC(=O)c2oc3ccccc3c2NC(=O)C(C)(C)C)cc1 [3-(2,2-dimethylpropanoylamino)-N-(4-methoxyphenyl)-1-benzofuran-2-carboxamide]"
4,69.5,CC1CCCN(CCCNC(=O)c2coc3nc4ccccc4nc23)C1 (stereo not drawn) [MLS000046706]

# More lines, now with the values behind:
row,SMILES,IC50 [µM]
1,Cc1cccc(NNC2=c3cc(Br)ccc3=NC2=O)c1 [5-bromo-3-[2-(3-methylphenyl)hydrazinyl]indol-2-one],69.5
2,O=C1OCCN1C(=O)C1=[N+](c2ccc(Br)cc2)N[C-](c2ccccc2)[C@H]1c1ccc([N+](=O)[O-])cc1 [SMR000327268],69.5
3,"O=C(Cc1sc(=O)n(-c2ccccc2)c1O)Nc1ccccc1 [2-(2,4-diketo-3-phenyl-thiazolidin-5-yl)-N-phenyl-acetamide]",46.7
4,"CCOc1cc(C(c2c(C)[nH][nH]c2=O)c2c(C)[nH][nH]c2=O)ccc1O [4-[(3-ethoxy-4-hydroxyphenyl)-(3-methyl-5-oxo-1,2-dihydropyrazol-4-yl)methyl]-5-methyl-1,2-dihydropyrazol-3-one]",69.5
5,Cn1c(-c2sccc2OCc2ccc(Cl)cc2Cl)n[nH]c1=S,69.5
6,C=c1cc(O)c(CN(C)C)c2oc(=Cc3ccco3)c(O)c12 [(2Z)-7-[(dimethylamino)methyl]-2-(furan-2-ylmethylidene)-6-hydroxy-4-methyl-1-benzofuran-3-one],17
7,"CC(=NNC(=N)Sc1cc(O)n(-c2ccc(Br)cc2)c1O)c1cccs1 [[1-(4-bromophenyl)-2,5-bis(oxidanylidene)pyrrolidin-3-yl] N''-(1-thiophen-2-ylethylideneamino)carbamimidothioate]",69.5
8,"CC(=NNC(=N)Sc1cc(O)n(-c2ccccc2)c1O)c1cccs1 [[2,5-bis(oxidanylidene)-1-phenyl-pyrrolidin-3-yl] N'-[(E)-1-thiophen-2-ylethylideneamino]carbamimidothioate]",69.5
9,CCOc1ccc(NC(=O)Cc2sc(=O)n(-c3ccccc3)c2O)cc1,5.73
